Assay results from US12220461B2, “Polypeptide-coupled small molecule compound and antiviral application thereof” (Guangzhou Medical University, priority 2023, dated 2025).
Starred links: 1 amine or outer side, 2 acyl side, 3 side chain; linkers in the order of their positions; H or OH if unused. Non-standard residues stand in square brackets, D forms with d. Residues, ends and D or L forms follow the SMILES beside them. ξ: configuration not given here. *: point of attachment. X1 = Cc1ccc(N[*:1])cc1C(=O)[*:2]; X2 = C[C@@H](N*)c1cccc2ccccc12; ξR = N=C(N)NCCCC(N)C(=O)O; ξL = CC(C)CC(N)C(=O)O; ξS = NC(CO)C(=O)O

Tested on: Omicron BA5.2 variant of SARS-CoV-2
Assay type: cell-based

Cc1ccc(NC(=O)CNC(=O)CNC(=O)C(CCCNC(=N)N)NC(=O)C(CC(C)C)NC(=O)C(CCCNC(=N)N)NC(=O)C(N)CO)cc1C(=O)N[C@H](C)c1cccc2ccccc12 (stereo partly shown) [RG-17] (H-[ξS][ξR][ξL][ξR]GG[X1]-X2)
IC50 for inhibition of replication of the SARS-CoV-2 genome (qPCR): lower than GRL0617
